Read-outs that look alike come from different tables or passages of the source.
Tests used:
TZM-bl cell line = format: cell-based; details: human, 1 μM
In short: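 TZM-bl cells (HIV-1 LTR-luciferase) infected with HIV-1NL4-3 with compound at 1 μM; luciferase read 48 h later. Percent inhibition normalized to DMSO wild-type infection (0%) and Nef-defective HIV-1 infection (100% of Nef-dependent effect). Viability in uninfected TZM-bl cells by Cell Titer Blue.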

HIV-1 NefNL4-3 = HIV-1 NefNL4-3 (Human immunodeficiency virus type 1 group M subtype B, UniProt P03406, A33V/T15A/T51N/V11I); test: Surface plasmon resonance binding to recombinant full-length Nef (NL4-3); details: for RU30/RUNef (extent of binding): response units at 30 μM relative to Nef immobilized on the SPR chip
HIV-1NL4-3 = test: HIV-1 infectivity assay in TZM-bl reporter cell line (LTR-luciferase, 48 h); format: cell-based; details: Human immunodeficiency virus 1, TZM-bl
In short: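 Compounds were tested at 1 μM in TZM-bl cells infected with HIV-1NL4-3. Infectivity was read as luciferase signal 48 h after infection and expressed as percent inhibition, normalized between DMSO-treated wild-type infection (0%) and DMSO-treated Nef-defective HIV-1 infection (100% of the Nef-dependent effect).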

[1] = Nef NL4-3 Binding, SPR 2-state fitting KD, Table 1, 2-step induced-fit model
[2] = read-out: Nef NL4-3 Binding, SPR 1:1 or 2-site fitting KD2, Table 1, 2-site fit, second component
[3] = 48 h, Table 1, TZM-bl cells, 1 μM, 48 h, 100% = Nef-defective HIV-1, read-out: HIV-1 Infectivity % Inhibition Norm. to Δ-Nef @ 1 μM
[4] = 1.0 μM, TZM-bl reporter cell line, Table 4, read-out: % Infectivity Inhibition
[5] = KD, M, Table 4, SPR fit 1:1 Langmuir, KD = koff/kon
[6] = Table 4, 1:1 Langmuir fit, T = 1/koff

Row | Compound | Percent Viability @ 1 μM (TZM-bl cells) (TZM-bl cell line) | Kd (HIV-1 NefNL4-3) | Kd (HIV-1 NefNL4-3; [1]) | Kd (HIV-1 NefNL4-3; [2]) | inhibition at 1 µM (HIV-1NL4-3; [3]) | % Cell Viability (TZM-bl cell line) | Kd (HIV-1 NefNL4-3; KD, M, Table 4, SPR fit 2-step induced fit, KD = koff/kon × koff2/(koff2 + kon2)) | T, minutes (residence time) (HIV-1 NefNL4-3; Table 4, 2-step induced fit, T = 1/koff2) | RU30/RUNef (extent of binding) (HIV-1 NefNL4-3) | inhibition at 1 µM (HIV-1NL4-3; [4]) | Nef NL4-3 Binding, SPR 1:1 or 2-site fitting KD1 (HIV-1 NefNL4-3; Table 1, 1:1 Langmuir fit where the KD2 cell says '1 to 1 fitting', else 2-site fit) | Kd (HIV-1 NefNL4-3; [5]) | T, minutes (residence time) (HIV-1 NefNL4-3; [6])
1 | CC(C)CS(=O)(=O)N1CCC(c2nn(-c3nc4ccccc4[nH]3)c(O)c2CCc2ccc(F)cc2)CC1 [Compound I-750, 1-(1H-1,3-benzodiazol-2-yl)-4-[2-(4-fluorophenyl)ethyl]-3-[1-(2-methylpropanesulfonyl)piperidin-4-yl]-1H-pyrazol-5-ol] | 93.0% | 0.138 nM | 1160 nM | 0.572 nM | 63.7% |  |  |  |  |  |  |  | 
2 | CC(C)S(=O)(=O)N1CCC(c2nn(-c3nc4ccccc4[nH]3)c(O)c2CCc2ccc(F)cc2)CC1 [Compound I-751, 1-(1H-1,3-benzodiazol-2-yl)-4-[2-(4-fluorophenyl)ethyl]-3-[1-(propane-2-sulfonyl)piperidin-4-yl]-1H-pyrazol-5-ol] | 101.1% | 560 nM |  |  | 22.3% |  |  |  |  |  |  |  | 
3 | O=S(=O)(C1CCCC1)N1CCC(c2nn(-c3nc4ccccc4[nH]3)c(O)c2CCc2ccc(F)cc2)CC1 [Compound I-753, 1-(1H-1,3-benzodiazol-2-yl)-3-[1-(cyclopentanesulfonyl)piperidin-4-yl]-4-[2-(4-fluorophenyl)ethyl]-1H-pyrazol-5-ol] | 95.8% | 20.4 nM |  |  | 76.5% |  |  |  |  |  |  |  | 
4 | CC(=O)N1CCCC(c2nn(-c3nc4ccccc4[nH]3)c(O)c2CCc2ccc(F)cc2)C1 (stereo not shown) [Compound I-754, 1-{3-[1-(1H-1,3-benzodiazol-2-yl)-4-[2-(4-fluorophenyl)ethyl]-5-hydroxy-1H-pyrazol-3-yl]piperidin-1-yl}ethan-1-one] | 97.2% | 477 nM | 0.0233 nM | 7320 nM | 37.4% | 97.2% | 0.0233 nM | 8.05E + 05 minutes | 5.14E- 03 | 37.4% |  |  | 
5 | O=C(c1cnccn1)N1CCCC(c2nn(-c3nc4ccccc4[nH]3)c(O)c2CCc2ccc(F)cc2)C1 (stereo not shown) [Compound I-756, 1-(1H-1,3-benzodiazol-2-yl)-4-[2-(4-fluorophenyl)ethyl]-3-[1-(pyrazine-2-carbonyl)piperidin-3-yl]-1H-pyrazol-5-ol] | 101.9% |  |  |  | 34.3% |  |  |  |  |  | No Interaction |  | 
6 | O=C(Cc1ccncc1)N1CCCC(c2nn(-c3nc4ccccc4[nH]3)c(O)c2CCc2ccc(F)cc2)C1 (stereo not shown) [Compound I-757, 1-{3-[1-(1H-1,3-benzodiazol-2-yl)-4-[2-(4-fluorophenyl)ethyl]-5-hydroxy-1H-pyrazol-3-yl]piperidin-1-yl}-2-(pyridin-4-yl)ethan-1-one] | 102.8% | 2390 nM |  |  | 17.2% |  |  |  |  |  |  |  | 
7 | O=S(=O)(c1cccnc1)N1CCCC(c2nn(-c3nc4ccccc4[nH]3)c(O)c2CCc2ccc(F)cc2)C1 (stereo not shown) [Compound I-758, 1-(1H-1,3-benzodiazol-2-yl)-4-[2-(4-fluorophenyl)ethyl]-3-[1-(pyridine-3-sulfonyl)piperidin-3-yl]-1H-pyrazol-5-ol] | 99.8% | 63.1 nM |  |  | 54.9% | 99.8% |  |  | 2.95E- 03 | 54.9% |  | 68.1 nM | 9.21E + 01 minutes
8 | O=C(c1cnccn1)N1CCCC1c1nn(-c2nc3ccccc3[nH]2)c(O)c1CCc1ccc(F)cc1 (stereo not shown) [Compound I-759, 1-(1H-1,3-benzodiazol-2-yl)-4-[2-(4-fluorophenyl)ethyl]-3-[1-(pyrazine-2-carbonyl)pyrrolidin-2-yl]-1H-pyrazol-5-ol] | 98.2% | 221 nM |  |  | -7.6% |  |  |  |  |  |  |  | 
9 | O=C(Cc1ccncc1)N1CCCC1c1nn(-c2nc3ccccc3[nH]2)c(O)c1CCc1ccc(F)cc1 (stereo not shown) [Compound I-760, 1-{2-[1-(1H-1,3-benzodiazol-2-yl)-4-[2-(4-fluorophenyl)ethyl]-5-hydroxy-1H-pyrazol-3-yl]pyrrolidin-1-yl}-2-(pyridin-4-yl)ethan-1-one] | 96.8% | 780 nM |  |  | 46.5% | 96.8% |  |  | 1.38E- 03 | 46.5% |  | 780 nM | 7.31E + 00 minutes

From patent US20220380341A1, “INHIBITORS OF HIV-1 NEF FOR THE TREATMENT OF HIV DISEASE” (priority 2018, published 2022)
